Active and inactive are the calls of the source. The rule behind the calls is not given here.
Columns and labels:
HASMC [1] = assay: Inhibition of proliferation of human aortic smooth muscle cells at a concentration of 5 uM; type: functional
[2] = Concentration required for 50% inhibition of TNF-alpha inducible MCP-1 expression.
Mus musculus = assay: Inhibition of progression of atherosclerosis in aorta after oral dosing in cholesterol fed LDL receptor knockout mice; type: functional
[3] = Concentration required for 50% inhibition of TNF-alpha inducible Selectin E expression.
Oryctolagus cuniculus = assay: Inhibition of progression of atherosclerosis in aorta after oral dosing in cholesterol fed rabbits; type: functional
[4] = Inhibitory effect in preventing the oxidation of linoleic acid by 15-lipoxygenase at a concentration of 70 uM; type: functional
HASMC [5] = assay: Inhibition of proliferation of human aortic smooth muscle cells at a concentration of 5 uM; NE is no Effect; type: functional, cell-based

| IC50 [2] [µM] | IC50 [3] [µM] | inhibition [4] [%] | Structure (SMILES) | inhibition at 5 µM (HASMC [1]) [%] | Inhibition (Mus musculus) [%] | Inhibition (Oryctolagus cuniculus) [%] | inhibition (HASMC [5]) |
| --- | --- | --- | --- | --- | --- | --- | --- |
| 10 | 25 | 85 | CC(C)(Sc1cc(C(C)(C)C)c(O)c(C(C)(C)C)c1)Sc1cc(C(C)(C)C)c(OC(=O)CCC(=O)O)c(C(C)(C)C)c1 [SUCCINOBUCOL] | ~50 | 43 | 94 |  |
|  |  |  | CC(C)(Sc1cc(C(C)(C)C)c(O)c(C(C)(C)C)c1)Sc1cc(C(C)(C)C)c(O)c(C(C)(C)C)c1 |  |  |  | inactive |
|  |  | 85 | CC(C)(Sc1cc(C(C)(C)C)c(OC(=O)CCC(=O)O)c(C(C)(C)C)c1)Sc1cc(C(C)(C)C)c(OC(=O)CCC(=O)O)c(C(C)(C)C)c1 |  |  |  |  |

Reference: ChEMBL document CHEMBL1135320, “Novel phenolic antioxidants as multifunctional inhibitors of inducible VCAM-1 expression for use in atherosclerosis” (Bioorg Med Chem Lett, 2002)
